Assay results reported in US11059771B2, “Warming sensation compounds” (TAKASAGO INTERNATIONAL CORPORATION, priority 2016, dated 2021).

How the values were obtained:
mouth = test: Perceived warming sensations in the mouth, "swish and spit" protocol (Example 15); assay type: in vivo, human; settings: 1% by weight in ethanol, diluted at 10 ppm in water, one comment per participant (5 expert evaluators)
Protocol: A warming composition was prepared by adding 1% by weight of the warming agent of Example 1 to ethanol. The resulting warming composition was diluted at 10 ppm in water. The diluted warming composition was evaluated for its perceived warming sensations in the mouth by 5 expert evaluators following a “swish and spit” protocol, in which the sample is placed into a small tasting cup, taken into the mouth, and swished around, then the sample is spit back into the original tasting cup and disposed of. Additional compounds were evaluated and compared for perceived warming sensations in the mouth by expert evaluators following the “swish and spit” protocol.

expert panelists = test: Warming evaluation in milk chocolate by expert panelists (Example 17); assay type: in vivo, human; settings: 5% cut in MCT at 0.3% in milk chocolate; for Average Warming Intensity (1-9): 1=none, 9=very strong, control without warming compound 1.7; for Onset: panelists chose slow, medium or fast
panelists = test: Warming sensation in lotion, panel evaluation (Example 20); assay type: in vivo, human; settings: for Overall warming intensity (1 = no effect, 5 = extremely warming): 0.5% loading in in-house lotion base, 5 panelists, control 1.25
Source text: All materials were made with 0.5% loading of active compound in an in-house lotion base except the control, which contains no active material. There were a total of 5 panelists to evaluate the lotion samples.

Row | Structure (SMILES) | Comments (perceived warming sensations in the mouth) (mouth) | Average Warming Intensity (1-9) (expert panelists; 10 expert panelists) | Character/Comments (expert panelists; 10 expert panelists, listed as compound C) | Onset (expert panelists) | Heat sensation when working out (sweating) after application (panelists; 0.5% in lotion base, noticed by an evaluator) | Overall warming intensity (1 = no effect, 5 = extremely warming) (panelists) | melting point [°C]
1 | COc1cc(CC(=O)OCCOc2ccccc2)ccc1O [Example 1, 2-Phenoxyethyl 2-(4-hydroxy-3-methoxyphenyl)acetate] | Immediate burn, intense but fades really quickly | 6.8 | pleasant linger, without an irritating burn | Fast (“fast onset” relates to the onset of warming sensation in less than about 10 seconds (i.e., quick)) | the heat sensation came back at the same intensity as first described at initial application | 2.90 | 56
2 | COc1cc(CC(=O)OC/C=C(\C)CCC=C(C)C)ccc1O [Example 13, (E)-3,7-Dimethylocta-2,6-dien-1-yl 2-(4-hydroxy-3-methoxyphenyl)acetate] | – | 2.7 | – | Slow (“slow onset” relates to the onset of warming sensation occurring after about 15 seconds (i.e., delayed)) | – | 2.70 | –
3 | COc1ccc(CC(C)COC(=O)Cc2ccc(O)c(OC)c2)cc1 (stereo not shown) [Example 5, 3-(4-methoxyphenyl)-2-methylpropyl 2-(4-hydroxy-3-methoxyphenyl)acetate] | – | 2.25 | – | Slow (“slow onset” relates to the onset of warming sensation occurring after about 15 seconds (i.e., delayed)) | – | 1.80 | –
